Patent publication US20230278954A1, “BRANCHED LIPID COMPOUDS” (priority 2020, published 2023)

Assays:
[1] = Stability III: accelerated aging at 40° C., 3 or 6 weeks, HPLC recovery; assay type: physicochemical
Protocol: Recovery of the target compound was assessed by HPLC, and the values as a percentage of the reference sample are reported in Table 14 and in FIG. 5.

human TLR2 = biological target: T1, human TLR2 (Homo sapiens, UniProt O60603); test: Activation of human TLR2 IV: HEK-BLUE-hTLR2 assay; assay type: cell-based; conditions: HEK-BLUE-hTLR2 cells, FIG. 4
T1 construct: expressed in transfected cells; host or cells: HEK-Blue hTLR2 cells
T1 sequence (O60603 21-784): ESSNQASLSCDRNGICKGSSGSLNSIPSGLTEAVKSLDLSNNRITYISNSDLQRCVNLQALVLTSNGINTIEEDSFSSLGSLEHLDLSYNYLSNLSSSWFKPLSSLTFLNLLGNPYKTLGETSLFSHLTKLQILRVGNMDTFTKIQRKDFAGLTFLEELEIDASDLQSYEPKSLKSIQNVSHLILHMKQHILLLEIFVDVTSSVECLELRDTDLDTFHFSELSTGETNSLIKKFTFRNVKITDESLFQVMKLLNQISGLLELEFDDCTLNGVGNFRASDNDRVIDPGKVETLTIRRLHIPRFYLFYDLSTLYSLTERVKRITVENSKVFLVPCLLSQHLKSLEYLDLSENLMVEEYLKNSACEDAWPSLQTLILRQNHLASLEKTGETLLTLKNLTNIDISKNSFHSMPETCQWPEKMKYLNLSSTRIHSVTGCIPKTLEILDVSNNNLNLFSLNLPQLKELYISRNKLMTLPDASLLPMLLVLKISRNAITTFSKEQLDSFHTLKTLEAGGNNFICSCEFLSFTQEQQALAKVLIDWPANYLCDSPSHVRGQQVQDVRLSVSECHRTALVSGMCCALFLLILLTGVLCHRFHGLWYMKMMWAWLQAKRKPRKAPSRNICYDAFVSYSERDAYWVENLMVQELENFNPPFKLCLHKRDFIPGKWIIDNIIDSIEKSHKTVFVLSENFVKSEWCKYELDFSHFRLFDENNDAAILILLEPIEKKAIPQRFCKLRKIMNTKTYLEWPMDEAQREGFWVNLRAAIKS
T1 sequence (Q9Y2C9 32-796 partner): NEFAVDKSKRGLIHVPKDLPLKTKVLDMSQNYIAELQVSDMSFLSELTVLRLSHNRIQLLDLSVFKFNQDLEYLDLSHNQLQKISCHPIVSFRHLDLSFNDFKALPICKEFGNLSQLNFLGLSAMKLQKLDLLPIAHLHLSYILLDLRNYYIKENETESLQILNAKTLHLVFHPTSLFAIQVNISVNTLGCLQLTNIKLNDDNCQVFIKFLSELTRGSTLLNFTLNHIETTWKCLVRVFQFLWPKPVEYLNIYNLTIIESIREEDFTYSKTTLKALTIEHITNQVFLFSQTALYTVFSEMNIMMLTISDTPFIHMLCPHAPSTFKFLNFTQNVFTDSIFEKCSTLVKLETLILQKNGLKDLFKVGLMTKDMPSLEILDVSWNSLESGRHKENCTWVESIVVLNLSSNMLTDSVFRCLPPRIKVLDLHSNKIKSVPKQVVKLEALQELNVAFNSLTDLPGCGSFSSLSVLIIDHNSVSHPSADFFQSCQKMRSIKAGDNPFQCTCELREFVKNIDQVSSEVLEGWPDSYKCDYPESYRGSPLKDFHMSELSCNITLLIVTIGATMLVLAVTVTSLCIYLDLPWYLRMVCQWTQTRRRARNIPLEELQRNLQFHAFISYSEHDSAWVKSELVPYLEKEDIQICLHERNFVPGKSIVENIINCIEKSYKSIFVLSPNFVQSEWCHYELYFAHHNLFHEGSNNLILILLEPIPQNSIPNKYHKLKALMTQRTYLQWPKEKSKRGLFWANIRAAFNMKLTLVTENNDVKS
Protocol: HEK-BLUE-hTLR2 cells are designed for studying the stimulation of human TLR2 (hTLR2) by monitoring the activation of NF-kB. HEK-BLUE-hTLR2 cells are obtained by co-transfection of the hTLR2 and SEAP (secreted embryonic alkaline phosphatase) reporter genes into HEK293 cells. Stimulation with a TLR2 ligand activates NF-kB which induces the production of SEAP. HEK-BLUE-hTLR2 cells were purchased from InvivoGen (San Diego, CA, USA). […] xii) Add immediately […] of the cell suspension per well of the plate which contains the solution of the compounds. The plate is then returned to the incubator at 37° C. for 16 hr and was read at 620 nm by using an ELISA reader.

[2] = Stability IV: formulation pH during accelerated storage; assay type: physicochemical
Protocol: Each compound was formulated in 0.9% w/w saline with addition of 0.1% w/w EDTA at about pH 5. The formulations were stored in the dark under accelerated conditions (40° C./75% RH) and reference formulations were stored at -80° C. At days 0, 9 and 28, samples were analysed by UHPLC and pH was measured.
The remaining ~ 1 mL of solution in the clear glass HPLC vials was stored at 40° C./75% RH and was used to measure pH at each time point.
The formulation pH data recorded at each time point are compiled in Table 19. There was a general trend for the pH to increase with time but the effect was not pronounced.

HEK-Blue Null2 cells = test: TLR- control cell line HEK-Blue Null2 (control for mouse TLR2); assay type: cell-based
Protocol: The secreted embryonic alkaline phosphatase (SEAP) reporter is under the control of a promoter inducible by the transcription factor NF-κB. This reporter gene allows the monitoring of signaling through the TLR, based on the activation of NF-κB. In a 96-well plate (200 µL total volume) containing the appropriate cells (50,000 - 75,000 cells/well), 20 µL of the test article or the positive control ligand (HKLC) is added to the wells. The media added to the wells is designed for the detection of NF-κB induced SEAP expression. After a 16-24-hour incubation the optical density (OD) is read at 650 nm on a Molecular Devices SpectraMax 340PC absorbance detector.

Row | Structure (SMILES) | stability under accelerated storage conditions (in words) [1] | activity at TLR2 (in words) (human TLR2) | pH of formulation ([2]; 0-days) | pH of formulation ([2]; 9-days, 40° C./75% RH) | pH of formulation ([2]; 28-days, 40° C./75% RH) | stimulatory response in HEK-Blue Null2 (mouse) cells (in words) (HEK-Blue Null2 cells)
1 | CCCCCCCCCCCCCCC(C)C(=O)OCC[C@H](CSC[C@H](N)C(=O)N[C@@H](CO)C(=O)NCCOCCOCCOCCOCCOCCOCCOCCOCCOCCOCCOCCOCCOCCOCCOCCOCCOCCOCCOCCOCCOCCOCCOCCOCCOCCOCCOCCOCCC(=O)NCC(N)=O)OC(=O)C(C)CCCCCCCCCCCCCC (stereo partly shown) [Compound B12] | excellent stabilities | significant activity | 5.6 | 5.7 | 5.7 | not observed
2 | CCCCCCCCCCCCCCC(C)C(=O)OC[C@H](CSC[C@H](N)C(=O)N[C@@H](CO)C(=O)NCCOCCOCCOCCOCCOCCOCCOCCOCCOCCOCCOCCOCCOCCOCCOCCOCCOCCOCCOCCOCCOCCOCCOCCOCCOCCOCCOCCOCCC(=O)NCC(N)=O)OC(=O)C(C)CCCCCCCCCCCCCC (stereo partly shown) [Compound B4] |  |  | 5.6 | 5.7 | 5.7 | not observed
